Experimental data from patent US20040019024A1, “Use of vitamin d derivatives as bone resorption inhibitors” (priority 2000, published 2004).

Experiments:
[1] = test system: bone marrow cells of Paget's disease of bone patients; assay: Osteoclast formation induced by 1α,25-dihydroxyvitamin D3 in bone marrow cultures from Paget's disease of bone patients; format: cell-based, human; conditions: for osteoclast formation (average number of cells ± S.D.): Paget's marrow
Excerpt: (§1) Mononuclear cells were fractionated from bone marrow cells of healthy normal persons according to a method of Kurihara et al. (Endocrinology, vol. 126, 2733-2741 (1990)). Briefly, bone marrow cells were obtained from normal persons, a mononuclear cell fraction was collected by Hypaque-Ficoll density gradient centrifugation, the cell fraction was washed with α-Minimal Essential Media (α-MEM) 3 times, and the cells dispersed in α-MEM containing 10% fetal bovine serum. This mononuclear cell suspension was seeded in 100-mm tissue culture plates, the culture plate was kept for 90 minutes at 37° C. in a 4% CO2-air atmosphere, and the non-adherent cells were collected. The non-adherent mononuclear cells were dispersed into α-MEM culture medium containing 20% horse serum at 10^6 cells/ml, the cell suspension was seeded into 96-well multi plates at 100 μl/well.
The capacity of the compound 11 (23S isomer) to inhibit osteoclast formation induced by 1α,25-dihydroxyvitamin D3 was evaluated as follows: Various concentrations of 1α,25-dihydroxyvitamin D3, various concentrations of compound 11 ([…]) solution were added to each well. The culture medium was replaced twice weekly and the cultures continued for 3 weeks at 37° C. in an atmosphere of 4% CO2-air. Osteoclasts that formed were identified by their capacity to bind the 23C6 antibody. The nuclei were counter stained with methyl green. Cells that reacted with the 23C6 antibody and had 3 or more nuclei were scored as osteoclasts.
Bone marrow cells were obtained from involved bones of patients with Paget's disease of bone and processed and cultured as described above for normal bone cells. The cultures were treated in an identical manner with 1α,25-dihydroxyvitamin D3 and/or compound 11 (23S isomer) as described in Example 1.
Bone marrow cultures were performed as described in Example 1, with the exception that different types of vitamin D antagonists were added to at varying concentrations to bone marrow cultures stimulated with 1α,25-dihydroxyvitamin D3. The bone marrow cells were taken from involved bones of patients with Paget's disease of bone and the cultures were performed as described in Example 2. There are two diastereoisomers, based on the asymmetric carbon at the 23 position, in compounds 13 and 16. The isomer having the shorter retention time on reverse phase HPLC analysis was the more polar isomer and the isomer having the longer retention time was the less polar isomer.

[2] = test system: vitamin D deficient rats; assay: Bone resorption (serum calcium) induced by 1α,25-dihydroxyvitamin D3 in vitamin D deficient rats; format: in vivo, Wistar rats
Method: Four-week-old male Wistar rats purchased from Japan SLC (Shizuoka, in Japan) were used. The animals were kept in wire-net cages (three animals in a cage) and raised for 7 weeks with free access to a vitamin D-deficient diet (Ca, 0.0036%; P, 0.3%; Harlan Taklad Research Diet, Madison, Wis., U.S.A.) and drinking water (well water treated with hypochlorite of […]±0.2 ppm). Temperature was kept at 23±1° C. and the humidity at 55±10%. Five animals were used for each experimental group. The control animals received intravenously administered solvent (5% ethanol-0.1% Triton X-100-physiological saline solution), and the experimental animals were intravenously administered 1α,25-dihydroxyvitamin D3 at a dose of 0.25 μg/kg. For animals receiving vitamin D derivatives, compound 11 (23S isomer) was administered intravenously at a dose of 2 μg/kg, 10 μg/kg or 50 μg/kg, or the compound 11 (23S isomer) with or without 1α,25-dihydroxyvitamin D3 at a dose of 0.25 μg/kg. The volume was 2 ml/kg for each animal. 24 hours after administration, a blood sample was taken out from abdominal descending aorta under ether anesthesia, the serum was collected according to conventional methods, and the calcium concentration in the serum was measured. The calcium concentrations were measured according to OCPC-method (Am. J. Clin. Pathol., vol. 45, 290-296 (1966)) with an autoanalyzer (type 7070, manufactured by Hitachi Seisakusho).

[3] = test system: bone marrow cells of normal persons; assay: Osteoclast formation induced by 1α,25-dihydroxyvitamin D3 in normal human bone marrow cultures; format: cell-based; conditions: for osteoclast formation (average number of cells ± S.D.): compound alone, normal marrow, 3 weeks
Excerpt: as §1, with “μl/well. The capacity of the compound 11 (23S isomer) to inhibit osteoclast formation induced by 1α,25-dihydroxyvitamin D3 was evaluated as follows: Various concentrations of 1α,25-dihydroxyvitamin D3, various concentrations of compound 11 (23S isomer) or a combination of 10^−8 M 1α,25-dihydroxyvitamin D3 solution and various concentrations of compound 11 (23S isomer) solution were added to each well. The culture medium was replaced twice weekly and the cultures continued for 3 weeks at 37° C. in an atmosphere of 4% CO2-air. Osteoclasts that formed were identified by their capacity to bind the 23C6 antibody. The nuclei were counter stained with methyl green. Cells that reacted with the 23C6 antibody and had 3 or more nuclei were scored as osteoclasts.” for “μl/well.”

[4] = 10^−10 M 1α,25-dihydroxyvitamin D3 + compound 10^−7 M
[5] = 10^−10 M 1α,25-dihydroxyvitamin D3 + compound 10^−8 M
[6] = 10^−10 M 1α,25-dihydroxyvitamin D3 + compound 10^−9 M
[7] = compound alone, Paget's marrow cultures

SMILES | osteoclast formation (average number of cells ± S.D.) [1, 4] [cells] | osteoclast formation (average number of cells ± S.D.) [1, 5] [cells] | osteoclast formation (average number of cells ± S.D.) [1, 6] [cells] | induction of osteoclast formation by the compound alone (in words) ([1]; Paget's marrow cultures) | osteoclast formation (average number of cells ± S.D.) ([1]; compound alone, 10^−7 M) [cells] | osteoclast formation (average number of cells ± S.D.) ([1]; compound alone, 10^−8 M) [cells] | osteoclast formation (average number of cells ± S.D.) ([1]; compound alone, 10^−9 M) [cells] | effect on basal osteoclast formation (in words) [1, 7] | also measured
C=C1CC(CC(C)C2CCC3C(=CC=C4CC(O)CC(O)C4=C)CCCC32C)CC1=O (single isomer, unassigned; less polar) [compound 13 (less polar isomer)] | 14 ± 1 | 70 ± 2 | 127 ± 4 | did not induce the osteoclast formation | 1 ± 1 | 6 ± 2 | 7 ± 1 | inhibited basal osteoclast formation | 
C=C1CC(CC(C)C2CCC3C(=CC=C4CC(O)CC(O)C4=C)CCCC32C)CC1=O (single isomer, unassigned; more polar) [compound 13 (more polar isomer)] | 31 ± 5 | 79 ± 9 | 152 ± 12 | did not induce the osteoclast formation | 3 ± 4 | 25 ± 4 | 44 ± 5 | inhibited basal osteoclast formation | 
C=C1/C(=C\C=C2/CCC[C@]3(C)[C@@H]([C@H](C)CCCC(C)(C)O)CC[C@@H]23)C[C@@H](O)C[C@@H]1O [1α,25-dihydroxyvitamin D3, reference compound] |  |  |  |  | 205 ± 6 | 206 ± 16 | 211 ± 25 |  | serum calcium concentration compared to controls (in words) ([2]; 0.25 μg/kg, 24 hours after receiving): significant increased serum calcium concentration; serum Ca concentration ([2]; compound alone, 0.25 μg/kg intravenously, 24 hours after administration): 5.42 ± 0.12 mg/100 ml serum; osteoclast formation at 10^−10 M (in words) ([3]; 10^−10 M, bone marrow cells of normal persons): is not induced; osteoclast formation (average number of cells ± S.D.) ([3]; 10^−7 M): 91 ± 7 cells; osteoclast formation (average number of cells ± S.D.) ([3]; 10^−8 M): 87 ± 12 cells; osteoclast formation (average number of cells ± S.D.) ([3]; 10^−9 M): 34 ± 6 cells; osteoclast formation (average number of cells ± S.D.) ([3]; 10^−10 M): 11 ± 2 cells; osteoclast formation (average number of cells ± S.D.) ([3]; 10^−11 M): 13 ± 3 cells; concentration at which osteoclast formation was maximal ([3]; normal marrow cultures): 10^−8 M; osteoclast formation at 10^−10 M (in words) ([1]; 10^−10 M, bone marrow cells from Paget's disease of bone patients): is induced; lowest concentration inducing osteoclast formation ([1]; Paget's marrow cultures): 10^−11 M; osteoclast formation (average number of cells ± S.D.) ([1]; compound alone, 10^−10 M): 180 ± 15 cells; osteoclast formation (average number of cells ± S.D.) ([1]; compound alone, 10^−11 M): 134 ± 14 cells
C=C1CC(CC(C)C2CCC3C(=CC=C4CC(O)CC(O)C4=C)CCCC32C)OC1=O (stereo not drawn) [compound 11 (23R isomer)] | 18 ± 9 | 70 ± 12 | 145 ± 8 | did not induce the osteoclast formation | 1 ± 1 | 20 ± 3 | 32 ± 3 | inhibited basal osteoclast formation | 
